# Measured values taken from patent US20250241310A1, “METHODS AND COMPOSITION FOR CONTROLLING PESTS” (UPL CORPORATION LIMITED, priority 2021, published 2025).
# Tests used:
# Assay type in all cases: in vivo
# [1] = tested on: fall army worm (Spodoptera frugiperda); assay: Field trial in corn plantation, % control of fall army worm, flupyrimin alone
# Experimental: Trials were carried out in the field to assess efficacy of flupyrimin against fall army worm (Spodoptera frugiperda) in corn plantation. Evaluation was done to check % control of said insects at different dosage for 3, 7, 10, 14 DAA for 1st application and 3, 7, 10, 14, 21, 28, 35, and 42 DAA for 2nd application. The rate of application was 500 lit/ha.
# [2] = tested on: Corn leafhopper (Dalbulus maidis); assay: Field trial, % control of adult corn leafhopper per plant
# Experimental: Trials were carried out in field to assess efficacy of flupyrimin against Corn leafhopper (Dalbulus maidis). Evaluation was done to check % control of adult insects per plant at different dosage at 3 days after emergence and 7 days after emergence.
# [3] = tested on: corn rootworm (Diabrotica virgifera virgifera); assay: Field trial, seed treatment, efficacy against corn rootworm (% control and root damage index); conditions: for Damage Index: scale 1-6, corn roots
# Experimental: Trials were carried out in field to assess efficacy of flupyrimin against corn rootworm (Diabrotica virgifera virgifera). Seeds were treated with flupyrimin before sowing. Evaluation was done to check % control of said insects at different dosage. Soil Texture=clay loam, pH=6.89, OM %=3.29.
# Further, the damage index (Scale 1-6) at different concentrations was evaluated.
# Assessment of the amount of damage by larval feeding of D. virgifera on corn roots were made by digging out the root system taking a diameter of approximately 25 cm to a depth of 15 cm. The root systems were then washed so that all crown roots were fairly clean. Damage on the root systems was assessed on 10 plants per plot (40 plants per treatment) using a scale as the following: • 1.0=no feeding damage; • 1.5=visible feeding scars present (not illustrated, but similar to a rating of two); • 2.0=up to three roots pruned slightly; • 2.5=more than three roots pruned, but none chewed to within 4 cm of plant; • 3.0=one to three roots chewed to within 4 cm of plant; • 3.5=more than three roots chewed to within 4 cm of plant; • 4.0=one entire node or equivalent number of roots destroyed • 4.5=about 1.5 nodes destroyed • 5.0=two nodes destroyed • 5.5=about 2.5 nodes destroyed • 6.0=three or more nodes completely destroyed (not illustrated, but similar to a rating of five)
# [4] = tested on: seed corn maggot (Delia platura); assay: Field trial, seed treatment, pest severity of seed corn maggot
# Experimental: Trials were carried out in field to assess efficacy of flupyrimin against seed corn maggot (Delia platura). Seeds were treated with flupyrimin before sowing. Evaluation was done to evaluate pest severity of said insects at different dosage. Soil Texture=fine sandy loam, pH=7, OM %=0.8.
structure (smiles),measurement,setting,value
"O=C(/N=c1\ccccn1Cc1ccc(Cl)nc1)C(F)(F)F [Flupyrimin, N-[(E)-1-(6-chloro-3-pyridinylmethyl)pyridin-2 (1H)-ylidene]-2,2,2-trifluoroacetamide]",% Control,"[1]; post 1st application, 150 g a.i./ha, 3 DAA",27.8%
same,% Control,"[1]; post 1st application, 150 g a.i./ha, 7 DAA",29.1%
same,% Control,"[1]; post 1st application, 150 g a.i./ha, 10 DAA",28.1%
same,% Control,"[1]; post 1st application, 150 g a.i./ha, 14 DAA",24.4%
same,% Control,"[1]; post 1st application, 200 g a.i./ha, 3 DAA",32.8%
same,% Control,"[1]; post 1st application, 200 g a.i./ha, 7 DAA",34.1%
same,% Control,"[1]; post 1st application, 200 g a.i./ha, 10 DAA",33.7%
same,% Control,"[1]; post 1st application, 200 g a.i./ha, 14 DAA",29.5%
same,% Control,"[1]; post 1st application, 250 g a.i./ha, 3 DAA",38.1%
same,% Control,"[1]; post 1st application, 250 g a.i./ha, 7 DAA",40.1%
same,% Control,"[1]; post 1st application, 250 g a.i./ha, 10 DAA",36.7%
same,% Control,"[1]; post 1st application, 250 g a.i./ha, 14 DAA",32.9%
same,% Control,"[1]; post 2nd application, 150 g a.i./ha, 3 DAA",28.3%
same,% Control,"[1]; post 2nd application, 150 g a.i./ha, 7 DAA",30.4%
same,% Control,"[1]; post 2nd application, 150 g a.i./ha, 10 DAA",31.8%
same,% Control,"[1]; post 2nd application, 150 g a.i./ha, 14 DAA",32.6%
same,% Control,"[1]; post 2nd application, 150 g a.i./ha, 21 DAA",29.9%
same,% Control,"[1]; post 2nd application, 150 g a.i./ha, 28 DAA",28.9%
same,% Control,"[1]; post 2nd application, 150 g a.i./ha, 35 DAA",27.3%
same,% Control,"[1]; post 2nd application, 150 g a.i./ha, 42 DAA",27.1%
same,% Control,"[1]; post 2nd application, 200 g a.i./ha, 3 DAA",35.6%
same,% Control,"[1]; post 2nd application, 200 g a.i./ha, 7 DAA",35.3%
same,% Control,"[1]; post 2nd application, 200 g a.i./ha, 10 DAA",36.3%
same,% Control,"[1]; post 2nd application, 200 g a.i./ha, 14 DAA",35.3%
same,% Control,"[1]; post 2nd application, 200 g a.i./ha, 21 DAA",34.5%
same,% Control,"[1]; post 2nd application, 200 g a.i./ha, 28 DAA",34.5%
same,% Control,"[1]; post 2nd application, 200 g a.i./ha, 35 DAA",33.7%
same,% Control,"[1]; post 2nd application, 200 g a.i./ha, 42 DAA",33.3%
same,% Control,"[1]; post 2nd application, 250 g a.i./ha, 3 DAA",41.4%
same,% Control,"[1]; post 2nd application, 250 g a.i./ha, 7 DAA",42.7%
same,% Control,"[1]; post 2nd application, 250 g a.i./ha, 10 DAA",43.7%
same,% Control,"[1]; post 2nd application, 250 g a.i./ha, 14 DAA",44.4%
same,% Control,"[1]; post 2nd application, 250 g a.i./ha, 21 DAA",41.4%
same,% Control,"[1]; post 2nd application, 250 g a.i./ha, 28 DAA",38.8%
same,% Control,"[1]; post 2nd application, 250 g a.i./ha, 35 DAA",38.1%
same,% Control,"[1]; post 2nd application, 250 g a.i./ha, 42 DAA",37.9%
same,% Control,"[2]; 100 g ai/100 kg, rate 0.2 Kg-L/ha, 3 DAE",65%
same,% Control,"[2]; 100 g ai/100 kg, rate 0.2 Kg-L/ha, 7 DAE",50%
same,% Control,"[2]; 200 g ai/100 kg, rate 0.4 Kg-L/ha, 3 DAE",50.91%
same,% Control,"[2]; 200 g ai/100 kg, rate 0.4 Kg-L/ha, 7 DAE",45.83%
same,% Control,"[2]; 300 g ai/100 kg, rate 0.6 Kg-L/ha, 3 DAE",86.93%
same,% Control,"[2]; 300 g ai/100 kg, rate 0.6 Kg-L/ha, 7 DAE",47.02%
same,% Control,"[2]; 500 g ai/100 kg, rate 1.0 Kg-L/ha, 3 DAE",80%
same,% Control,"[2]; 500 g ai/100 kg, rate 1.0 Kg-L/ha, 7 DAE",63.69%
same,control of corn leafhopper (in words),[2]; summary of Table 4,good control
same,Damage Index,[3]; 100 g/100 kg of seeds,2.3
same,Damage Index,[3]; 200 g/100 kg of seeds,1.8
same,Damage Index,[3]; 300 g/100 kg of seeds,1.1
same,Damage Index,[3]; 400 g/100 kg of seeds,1
same,Damage Index,[3]; 500 g/100 kg of seeds,1
same,% Control,[3]; seed treatment 100 g/100 kg of seeds,49.39%
same,% Control,[3]; seed treatment 200 g/100 kg of seeds,70.4%
same,% Control,[3]; seed treatment 300 g/100 kg of seeds,96.38%
same,% Control,[3]; seed treatment 400 g/100 kg of seeds,99.36%
same,% Control,[3]; seed treatment 500 g/100 kg of seeds,100%
same,insect control against corn rootworm (in words),[3]; summary of Table 1,good insect control
same,reduction of root damage (in words),"[3]; summary of Table 2, different concentrations",efficacious in reducing the damage
same,Pest severity,"[4]; 100 g/100 kg of seeds, 14 DP",0.2
same,Pest severity,"[4]; 100 g/100 kg of seeds, 28 DP",4.3
same,Pest severity,"[4]; 100 g/100 kg of seeds, 35 DP",4.8
same,Pest severity,"[4]; 100 g/100 kg of seeds, 42 DP",5.9
same,Pest severity,"[4]; 200 g/100 kg of seeds, 14 DP",0
same,Pest severity,"[4]; 200 g/100 kg of seeds, 28 DP",0.7
same,Pest severity,"[4]; 200 g/100 kg of seeds, 35 DP",0.9
same,Pest severity,"[4]; 200 g/100 kg of seeds, 42 DP",1.8
same,Pest severity,"[4]; 300 g/100 kg of seeds, 14 DP",0
same,Pest severity,"[4]; 300 g/100 kg of seeds, 28 DP",0.3
same,Pest severity,"[4]; 300 g/100 kg of seeds, 35 DP",0.5
same,Pest severity,"[4]; 300 g/100 kg of seeds, 42 DP",0.9
same,Pest severity,"[4]; 400 g/100 kg of seeds, 14 DP",0
same,Pest severity,"[4]; 400 g/100 kg of seeds, 28 DP",0.3
same,Pest severity,"[4]; 400 g/100 kg of seeds, 35 DP",0.5
same,Pest severity,"[4]; 400 g/100 kg of seeds, 42 DP",1.1
same,Pest severity,"[4]; 500 g/100 kg of seeds, 14 DP",0
same,Pest severity,"[4]; 500 g/100 kg of seeds, 28 DP",0
same,Pest severity,"[4]; 500 g/100 kg of seeds, 35 DP",0
same,Pest severity,"[4]; 500 g/100 kg of seeds, 42 DP",0.3
same,efficacy against seed corn maggot (in words),[4]; summary of Table 3,effective
